{"source": "patent US20220339214A1", "about": "“KIRIN FRUIT FERMENTATION AND METHODS FOR IMPROVING METABOLISM BY USING THE SAME” (TCI CO., LTD., priority 2021, published 2022)", "key": {"mouse myoblasts C2C12 [1]": {"tested_on": "mouse myoblasts C2C12", "assay": "Proliferation of skeletal muscle cells (Click-iT Plus EdU, flow cytometry)", "assay_type": "cell-based", "conditions": "24 h", "text": "Experimental cell strain: mouse myoblasts C2C12 (hereinafter referred to as C2C12 cells) of the C2C12 cell strain (ATCC CRL-1772™) purchased from the American Type Culture Collection (ATCC®).\nCulture medium: Dulbecco's modified Eagle's medium, purchased from Gibco, US, Gat.11965-092. 10% of fetal bovine serum (FBS), purchased from Gibco, US, Gat.10437-028. 1% of antibiotic, purchased from Gibco, US, Gat.15240-062.\nReagents: 10×DPBS buffer (purchased from Gibco, Gat 14200-075), trypan blue dead cell dye (purchased from Lonza, Cat 17-942E), trypsin-EDTA (purchased from Gibco, Cat. 15400-054), and cell proliferation Click-iT™ Plus EdU kit (Invitrogen; Cat. C10632).\nFirst, 1×10^5 cells were inoculated into each well of a 6-well culture plate to culture at 37° C. for 24 h. The cultured cells were divided into three groups: an experimental group, a blank group, and a control group.\nBlank group: only a culture medium was added to culture at 37° C. for 24 h.\nControl group: 10% of PBS was added to culture at 37° C. for 24 h, which was used as a positive control group. […]\nNext, the specific reagent EdU from the cell proliferation kit was added to culture for 2 h. […] Finally, the fluorescence signal of the to-be-tested cell solution in each well was measured by the flow cytometry (under 488 nm of excitation light and 530/30 nm of scattered light), and the quantity of cells was calculated. […]"}, "mouse myoblasts C2C12 [2]": {"tested_on": "mouse myoblasts C2C12", "assay": "Activity of mitochondria in skeletal muscle cells affected by active substances (fluorescence picture)", "assay_type": "cell-based", "conditions": "100 nM, 24 h, compared with blank group", "procedure": "The experimental medium was removed from the culture plate, and the culture plate was washed with 1 mL of 1×PBS for two times. […] was added into each well to react for 5 min in the dark. After the reaction was completed, a cell medium was added to stop the reaction. The cells and cell medium in each well were collected in a 1.5 mL centrifuge tube, and the centrifuge tube containing the cells and cell medium was centrifuged at 400×g for 5 min. After the centrifugation, a supernatant was removed. The cells were washed with 1×DPBS, and then the centrifuge tube containing the cells was centrifuged again at 400×g for 5 min. After the centrifugation again, a supernatant was removed from each centrifuge tube, and 100 μL of JC-1 dye was added into each centrifuge tube and left to stand for 15 min in the dark. After 15 min, each centrifuge tube was centrifuged at 400×g for 5 min. […] Finally, the fluorescence signal of the to-be-tested cell solution in each well was measured by the flow cytometry (excitation light: 488 nip and scattered light: 527 nm & 590 nm), and the membrane potential of mitochondria was calculated, to analyze the activity of mitochondria. […] Finally, a picture of the fluorescence signal of the to-be-tested cell solution was taken by a. camera to observe the activity of mitochondria."}}}
{"smiles": "O[C@H]1[C@H](O)[C@@H](O)[C@H](O)[C@@H](O)[C@H]1O", "note": "[TCI-GHU-01, myo-inositol]", "values": [{"measurement": "increase of quantity of skeletal muscle cells", "setting": "mouse myoblasts C2C12 [1]; 100 nM, vs blank group", "value": 48.2, "unit": "%"}, {"measurement": "quantity of skeletal muscle cells relative to the blank group", "setting": "mouse myoblasts C2C12 [1]; TCI-GHU-01 100 nM, positive control 10%, blank group regarded as 100%", "value": 148.2, "unit": "%"}, {"measurement": "activity of mitochondria in skeletal muscle cells (small light spots around the nuclei)", "setting": "mouse myoblasts C2C12 [2]", "value": "higher than that of the blank group"}]}
